The record followed here is paper PMC7614683, “A small molecule PI3Kα activator for cardioprotection and neuroregeneration” (Nature, 2023).

A word on the inhibition: it is the percentage by which the read-out fell short of the control.

Read-outs that look alike come from different tables or passages of the source.

One test concerns HeLa cells. Kind of test: TIRF microscopy of PIP3 and PI(3,4)P2 reporters, HeLa. The test is classed as cell-based, human. On the procedure: Phosphoinositide reporters used were GFP-PH-ARNO^I303Ex2 (PIP3 reporter[41]) and mCherry-cPH-TAPP1x3 (PI(3,4)P2 reporter[41]). TIRF microscopy allows selective imaging of the small cell volume, including the plasma membrane, directly adjacent to the coverslip onto which cells have been seeded. HeLa or A549 cells were seeded in Matrigel-coated (Corning #354230; diluted in Opti-MEM at 1:50) 8-well chamber slides (glass bottom, 1.55 refractive index; Thermo Fisher Scientific #155409) at a density of 5,000 cells/well. […]
Image analyses of total reporter intensities were performed with the Fiji open source image analysis package. The region of interest (ROI) corresponding to the footprint of the individual cell across time points were defined using minimal intensity projection to select only pixels present across all time points, following prior subtraction of camera noise (rolling ball method, radius = 500 pixels) and xy drift correction, intensity levels over time were measured. […] All other quantifications were performed using the open source software R/RStudio. The values plotted in Fig. 3d (iii) represent mean±SEM, following signal scaling to minimum and maximum values of the normalised fluorescence intensity for each time point (Fn(t)). […]

Another test has as its target CAMK1 (CaMK1) (Homo sapiens, UniProt Q14012). Kind of test: SelectScreen Adapta. The note with it: 1000 nM, [ATP] 10 μM. The test is classed as biochemical. On the procedure:
(§1) 133 protein kinases and 7 lipid kinases were counterscreened, with 1938 used at 1 μM, using the Adapta, Lantha and Z-LYTE assays (SelectScreen Kinase Profiling Service; Thermofisher – experimental details of these assays can be found here: https://www.thermofisher.com/uk/en/home/industrial/pharma-biopharma/drug-discovery-development/target-and-lead-identification-and-validation/kinasebiology/kinase-activity-assays.html. The tree represention in KinMap[59] generated courtesy of Cell Signaling Technology, Inc. (www.cellsignal.com). mTORC1 (mTOR/RAPTOR/LST8) protein complex and ATM kinase and substrates were produced as previously described[57],[60]. Screening of 1938 was conducted using SuperSep Phos-Tag 50 μmol/l 100 x 100 x 6.6 mm 17-well (192-18001/199-18011) gels. For ATM assays, 100 nM ATM was incubated for 30 min at 30°C with 5 μM GST-p53 and 1 mM ATP, in the absence or presence of 200 μM 1938 in ATM Kinase Buffer (50 mM HEPES pH 7.5, 100 mM NaCl, 10% glycerol, 2 mM […], 5 mM MgCl2). As a positive control for ATM activation, the same reaction was carried out with 100 nM ATM/5 μM GST-p53/1 mM ATP in the presence of 100 nM Mre11-Rad50-Nbs1 (MRN) complex, a known activator of ATM[61]. For mTORC1 assays, 50 nM mTORC1 complex (mTOR/LST8/RAPTOR) was incubated for 3 h at 30°C with 15 μM 4E-BP1, 10 mM MgCl2 and 250 μM ATP, in the absence or presence of 200 μM 1938. As a ‘positive’ control, a higher concentration (150 nM) of mTORC1 complex (mTOR/LST8/RAPTOR) was incubated for 3 h at 30°C with 15 μM 4E-BP1, 10 mM MgCl2 and 250 μM ATP. Kinase reactions were quenched by addition of SDS-PAGE Loading Buffer (as per manufacturer’s instructions) and freezing at -20°C before being run on the Phos-tag gels at 150 V for 90 min. Gels were then stained using InstantBlue™ Coomassie, and quantified using BioRad Image Lab Software. Kinase assays were carried out in triplicate.

In the next test the target is PIK3C2A (PI3K-C2 alpha) (Homo sapiens, UniProt O00443). As to the kind of experiment: SelectScreen Adapta. The class given is biochemical. The procedure: as §1
Test [1] deals with PIK3CB/PIK3R1 (p110 beta/p85 alpha) (Homo sapiens, UniProt P42338). As to the kind of experiment: SelectScreen Adapta. The test is classed as biochemical. The procedure:
as §1

The target in a further test is T1, ATM (Homo sapiens, UniProt Q13315).
T1 construct: made in house
Kind of test: ATM in vitro kinase assay (Phos-tag gel). The class given is biochemical. The note with it: 200 μM 1938. On the procedure:
as §1, with “For mTORC1 assays, 50 nM mTORC1 complex (mTOR/LST8/RAPTOR) was incubated for 3 h at 30°C with 15 μM 4E-BP1, 10 mM MgCl2 and 250 μM ATP, in the absence or presence of 200 μM 1938. As a ‘positive’ control, a higher concentration (150 nM) of mTORC1 complex (mTOR/LST8/RAPTOR) was incubated for 3 h at 30°C with 15 μM 4E-BP1, 10 mM MgCl2 and 250 μM ATP. Kinase reactions were quenched by addition of SDS-PAGE Loading Buffer (as per manufacturer’s instructions) and freezing at -20°C before being run on the Phos-tag gels at 150 V for 90 min.” left out, “Kinase assays were carried out in triplicate.” left out

Chain of PIK3CB/PIK3R1 (p110 beta/p85 alpha) (P42338 whole entry): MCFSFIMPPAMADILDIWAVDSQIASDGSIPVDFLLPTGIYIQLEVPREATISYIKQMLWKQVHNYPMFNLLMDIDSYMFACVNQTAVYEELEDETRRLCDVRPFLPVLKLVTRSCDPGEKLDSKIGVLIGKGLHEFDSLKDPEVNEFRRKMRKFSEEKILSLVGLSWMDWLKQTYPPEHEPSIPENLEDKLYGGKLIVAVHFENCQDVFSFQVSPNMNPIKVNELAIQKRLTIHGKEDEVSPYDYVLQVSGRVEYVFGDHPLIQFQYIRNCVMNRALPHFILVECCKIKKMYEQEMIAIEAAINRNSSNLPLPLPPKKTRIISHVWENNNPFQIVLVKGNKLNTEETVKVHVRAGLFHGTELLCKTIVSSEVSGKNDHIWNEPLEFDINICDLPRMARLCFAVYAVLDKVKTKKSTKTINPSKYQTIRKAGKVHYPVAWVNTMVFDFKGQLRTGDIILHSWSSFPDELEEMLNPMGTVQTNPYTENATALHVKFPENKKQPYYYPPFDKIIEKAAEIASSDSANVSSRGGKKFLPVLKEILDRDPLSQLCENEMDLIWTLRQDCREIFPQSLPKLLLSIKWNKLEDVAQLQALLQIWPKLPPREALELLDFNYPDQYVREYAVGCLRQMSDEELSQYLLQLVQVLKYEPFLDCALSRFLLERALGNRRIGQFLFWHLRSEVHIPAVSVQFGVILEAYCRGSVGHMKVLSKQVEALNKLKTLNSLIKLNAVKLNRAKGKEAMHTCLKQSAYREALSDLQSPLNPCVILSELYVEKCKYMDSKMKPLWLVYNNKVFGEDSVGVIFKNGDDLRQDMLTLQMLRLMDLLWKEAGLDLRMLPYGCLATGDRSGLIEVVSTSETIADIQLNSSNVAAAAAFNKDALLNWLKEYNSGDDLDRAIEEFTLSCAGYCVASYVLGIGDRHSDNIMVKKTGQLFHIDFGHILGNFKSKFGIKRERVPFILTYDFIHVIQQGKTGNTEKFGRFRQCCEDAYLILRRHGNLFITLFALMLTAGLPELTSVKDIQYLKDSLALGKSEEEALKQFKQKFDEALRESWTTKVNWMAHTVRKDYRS
Chain of PIK3CB/PIK3R1 (p110 beta/p85 alpha) (P27986 whole entry partner): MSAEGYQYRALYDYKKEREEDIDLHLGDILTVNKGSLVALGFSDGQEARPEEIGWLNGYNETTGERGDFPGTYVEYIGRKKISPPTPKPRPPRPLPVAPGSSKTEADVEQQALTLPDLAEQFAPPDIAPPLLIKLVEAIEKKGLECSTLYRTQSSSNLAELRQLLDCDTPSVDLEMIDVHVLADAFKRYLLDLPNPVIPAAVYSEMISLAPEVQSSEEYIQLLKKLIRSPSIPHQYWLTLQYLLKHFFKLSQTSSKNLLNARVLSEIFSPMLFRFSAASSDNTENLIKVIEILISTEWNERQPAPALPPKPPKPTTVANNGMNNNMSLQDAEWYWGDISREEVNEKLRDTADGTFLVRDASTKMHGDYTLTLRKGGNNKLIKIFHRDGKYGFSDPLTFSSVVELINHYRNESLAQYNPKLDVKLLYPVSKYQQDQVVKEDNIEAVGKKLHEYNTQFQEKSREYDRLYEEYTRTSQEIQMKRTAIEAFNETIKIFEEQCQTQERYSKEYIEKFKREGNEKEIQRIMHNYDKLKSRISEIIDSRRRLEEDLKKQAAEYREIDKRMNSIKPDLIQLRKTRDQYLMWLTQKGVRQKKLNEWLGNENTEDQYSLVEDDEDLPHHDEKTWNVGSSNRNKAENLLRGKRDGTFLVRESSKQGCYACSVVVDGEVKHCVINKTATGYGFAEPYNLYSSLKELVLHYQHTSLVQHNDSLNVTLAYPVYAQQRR
Chain of PIK3C2A (PI3K-C2 alpha) (O00443 whole entry): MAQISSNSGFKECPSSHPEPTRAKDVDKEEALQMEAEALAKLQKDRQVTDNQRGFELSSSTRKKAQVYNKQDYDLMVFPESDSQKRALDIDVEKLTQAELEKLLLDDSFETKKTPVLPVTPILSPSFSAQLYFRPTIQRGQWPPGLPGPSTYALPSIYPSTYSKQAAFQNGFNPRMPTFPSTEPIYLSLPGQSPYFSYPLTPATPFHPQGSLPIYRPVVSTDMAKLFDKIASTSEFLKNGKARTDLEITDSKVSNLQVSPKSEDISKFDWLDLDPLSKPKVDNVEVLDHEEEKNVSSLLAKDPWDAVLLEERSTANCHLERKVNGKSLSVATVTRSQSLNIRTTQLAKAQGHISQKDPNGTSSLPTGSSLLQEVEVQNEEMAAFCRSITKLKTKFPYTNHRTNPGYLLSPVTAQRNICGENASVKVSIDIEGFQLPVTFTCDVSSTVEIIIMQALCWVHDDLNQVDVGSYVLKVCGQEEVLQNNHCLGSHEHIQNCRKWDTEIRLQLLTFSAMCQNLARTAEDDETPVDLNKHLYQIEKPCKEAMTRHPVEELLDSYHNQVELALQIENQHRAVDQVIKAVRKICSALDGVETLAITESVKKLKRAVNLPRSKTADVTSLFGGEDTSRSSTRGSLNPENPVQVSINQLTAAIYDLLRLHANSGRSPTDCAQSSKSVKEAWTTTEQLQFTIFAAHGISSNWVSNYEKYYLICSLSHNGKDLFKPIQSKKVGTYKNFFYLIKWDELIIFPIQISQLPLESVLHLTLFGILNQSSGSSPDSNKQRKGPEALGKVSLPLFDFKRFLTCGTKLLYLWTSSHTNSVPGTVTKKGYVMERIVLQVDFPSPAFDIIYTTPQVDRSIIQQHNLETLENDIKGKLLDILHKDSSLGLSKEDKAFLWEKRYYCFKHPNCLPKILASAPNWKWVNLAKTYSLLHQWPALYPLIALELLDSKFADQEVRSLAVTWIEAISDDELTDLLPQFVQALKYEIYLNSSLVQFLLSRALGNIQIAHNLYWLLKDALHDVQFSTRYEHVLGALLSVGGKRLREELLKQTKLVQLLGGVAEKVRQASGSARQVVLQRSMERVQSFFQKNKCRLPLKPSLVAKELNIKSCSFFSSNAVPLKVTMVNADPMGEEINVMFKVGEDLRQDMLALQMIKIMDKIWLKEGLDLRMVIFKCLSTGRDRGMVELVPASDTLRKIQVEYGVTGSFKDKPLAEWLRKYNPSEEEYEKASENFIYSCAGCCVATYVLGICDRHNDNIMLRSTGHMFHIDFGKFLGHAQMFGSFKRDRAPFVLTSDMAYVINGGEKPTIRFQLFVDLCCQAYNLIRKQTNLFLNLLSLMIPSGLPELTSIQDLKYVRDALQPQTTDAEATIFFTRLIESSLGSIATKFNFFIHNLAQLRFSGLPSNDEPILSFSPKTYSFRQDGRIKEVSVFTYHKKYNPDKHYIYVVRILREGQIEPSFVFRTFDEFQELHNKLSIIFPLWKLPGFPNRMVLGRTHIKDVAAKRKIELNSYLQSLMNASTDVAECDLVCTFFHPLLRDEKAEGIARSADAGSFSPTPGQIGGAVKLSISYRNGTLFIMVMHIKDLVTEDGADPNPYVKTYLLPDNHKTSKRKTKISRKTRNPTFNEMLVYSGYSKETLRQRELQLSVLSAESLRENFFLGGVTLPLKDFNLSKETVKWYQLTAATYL

`CCN1CCN(c2ccc(Nc3cc(Nc4cccc5c4N(C(C)=O)CC5)ccn3)cc2)CC1` [Compound 1938]: the “membrane-associated PI(3,4)P2 (biosensor)” value with HeLa cells is recorded as “generation of membrane-associated PI(3,4)P2”. The “plasma membrane PIP3 (biosensor)” value with HeLa cells was “acute and BYL719-sensitive burst of PIP3”. The inhibition at 1 µM was found to be 26% on CAMK1 (CaMK1) (read-out: % Inhibition Point 1); 23% on CAMK1 (CaMK1) (read-out: % Inhibition Point 2); 25% on CAMK1 (CaMK1) (read-out: % Inhibition mean); 2% on PIK3C2A (PI3K-C2 alpha) (read-out: % Inhibition Point 1); 3.23% on PIK3C2A (PI3K-C2 alpha) (read-out: % Inhibition Point 2); 2.57% at PIK3C2A (PI3K-C2 alpha) (read-out: % Inhibition mean). The inhibition at 1 µM in test [1] (read-out: % Inhibition Point 1) is 2.51%; in test [1] (read-out: % Inhibition Point 2) it was 0.803%; in test [1] (read-out: % Inhibition mean) it was 1.66%. Also, on ATM, the “effect on ATM activity” value was “did not affect the activity”.
